# Data from patent publication US20240101564A1, “SALTS OF A PI3Kdelta INHIBITOR, CRYSTALLINE FORMS, METHODS OF PREPARATION, AND USES THEREFORE” (BeiGene Switzerland GmbH, priority 2021, published 2024).
# Key:
# [1] = molecular target: PI3Kδ (Homo sapiens, UniProt O00329); experiment: PI3Kδ inhibition in biochemical and cellular assays
# [2] = test system: cancer cell lines; experiment: cellular growth of cancer cell lines in vitro; assay type: cell-based; conditions: several cancer cell lines in vitro
# [3] = test system: tumor xenografts; experiment: tumor xenografts engrafted subcutaneously or systemically in mice; assay type: in vivo; conditions: xenografts subcutaneous or systemic in mice
# [4] = pharmacokinetic properties of different salts in Sprague-Dawley rats after oral administration; assay type: in vivo; conditions: male SD rats, single oral 10 mg·kg^−1 (as free base), 0.5% MC, fasted
# Description: The oral dosing solution was prepared as follows: […] of a test compound was weighed and dispersed in 10 mL of 0.5% methyl cellulose (MC). The final concentration of the test compound is 1 mg·mL^−1 (Calculated by free freebase).
# Male Sprague-Dawley rats (also summarized in Table 27) were housed in solid bottom polypropylene cages with sterilized bedding and receive sterilized diet and sterilized water. The room was controlled and monitored for humidity (targeted mean range 40% to 70%) and temperature (targeted mean range 18° C. to 26° C.) with 10 to 20 air changes/hour. The light cycle was maintained at 12-h light and 12-h dark. Only animals that appeared to be healthy were selected for this study based on overall health, body weight, or other relevant information.
# The male Sprague-Dawley rats were fasted overnight with free access to drinking water prior to treatment. On day 1, the animals were weighed and actual dose volume for each animal was calculated using the formula below: […]
# Three rats for each group were given a single oral dose of 10 mg·kg^−1. The dosing solutions were freshly prepared prior to dose administration. The actual body weights and actual volume injected were recorded accordingly. Four hours after dosing, the rats were allowed to intake food.
# Blood samples (˜150 μL) were collected at different times from the jugular vein catheter into EDTA-K2 coated tubes. Whole blood was processed by centrifugation at 3000 g for 10 min. Plasma samples were collected and kept at −80° C. freezer prior to analysis. The blood sampling time was recorded accordingly.
# The dose samples of PO were diluted with MeOH:H2O (4:1, v/v) to achieve the concentration of 2 μg·mL^−1, respectively. Then, 2.5 μL of the diluted samples were added with 47.5 μL blank plasma, and then were handled as the plasma sample procedure. An aliquot of 10 μL of the mixture was injected into the LC-MS/MS system.
# [5] = DVS (water sorption) test of fumarate crystal forms; assay type: physicochemical; conditions: for water uptake in DVS: humidity increased
# Description: DVS testing on fumarate Type A was performed starting from 25° C./70% RH.
# DVS test on Type D was started at 25° C./60% RH to avoid any unnecessary form change for the starting form. […] Thus, fumarate Type D was speculated to be stable lower than 60% RH.
# DVS testing on fumarate Type F was started at 25° C./80% RH to avoid any unnecessary form change for the starting form.
# [6] = solid-state stability tests (HPLC and XRPD after storage for one week); assay type: physicochemical; conditions: for HPLC (area %), One week / XRPD form after storage (form change) / difference of HPLC purity after storage: 25° C./60% RH and 40° C./75% RH, one week
# Description: Fumarate Type D and Type F were further evaluated by solid-state stability tests under 25° C./60% RH and 40° C./75% RH for one week.
# In the experiments, about 15 mg of solids was added into an HPLC vial, which was then sealed with parafilm and pricked with 10 holes. Place the vial under corresponding condition and test the solids by HPLC and XRPD after one week.
# [7] = long-term stability, 3-month experiment; assay type: physicochemical
# PI3Kδ, sequence (O00329 whole entry, species assumed): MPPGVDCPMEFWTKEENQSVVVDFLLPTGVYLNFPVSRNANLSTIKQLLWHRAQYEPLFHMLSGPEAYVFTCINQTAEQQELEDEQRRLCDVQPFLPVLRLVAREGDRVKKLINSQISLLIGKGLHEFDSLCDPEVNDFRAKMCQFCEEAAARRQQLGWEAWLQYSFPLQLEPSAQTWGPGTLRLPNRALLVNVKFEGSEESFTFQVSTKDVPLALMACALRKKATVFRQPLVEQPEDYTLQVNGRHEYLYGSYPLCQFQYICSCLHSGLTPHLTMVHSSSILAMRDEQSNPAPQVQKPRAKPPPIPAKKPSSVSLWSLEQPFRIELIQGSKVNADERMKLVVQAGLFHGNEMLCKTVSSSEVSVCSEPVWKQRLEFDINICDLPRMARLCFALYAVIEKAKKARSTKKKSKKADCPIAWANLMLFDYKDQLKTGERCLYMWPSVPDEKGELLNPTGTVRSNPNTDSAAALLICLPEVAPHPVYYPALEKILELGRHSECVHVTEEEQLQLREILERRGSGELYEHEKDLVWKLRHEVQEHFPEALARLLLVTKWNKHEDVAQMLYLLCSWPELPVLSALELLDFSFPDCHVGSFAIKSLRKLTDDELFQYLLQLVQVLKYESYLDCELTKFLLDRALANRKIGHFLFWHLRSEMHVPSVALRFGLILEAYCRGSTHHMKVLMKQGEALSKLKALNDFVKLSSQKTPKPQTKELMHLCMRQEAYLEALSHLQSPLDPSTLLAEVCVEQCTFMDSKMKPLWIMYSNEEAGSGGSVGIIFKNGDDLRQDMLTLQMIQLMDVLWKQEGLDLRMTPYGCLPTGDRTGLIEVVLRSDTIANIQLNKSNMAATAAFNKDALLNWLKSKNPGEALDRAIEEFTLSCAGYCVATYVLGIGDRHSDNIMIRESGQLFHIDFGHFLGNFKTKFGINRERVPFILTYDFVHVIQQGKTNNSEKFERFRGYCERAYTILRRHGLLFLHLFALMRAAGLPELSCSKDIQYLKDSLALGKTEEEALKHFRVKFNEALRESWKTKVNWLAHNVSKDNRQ
# PI3Kδ, sequence (P27986 whole entry partner, species assumed): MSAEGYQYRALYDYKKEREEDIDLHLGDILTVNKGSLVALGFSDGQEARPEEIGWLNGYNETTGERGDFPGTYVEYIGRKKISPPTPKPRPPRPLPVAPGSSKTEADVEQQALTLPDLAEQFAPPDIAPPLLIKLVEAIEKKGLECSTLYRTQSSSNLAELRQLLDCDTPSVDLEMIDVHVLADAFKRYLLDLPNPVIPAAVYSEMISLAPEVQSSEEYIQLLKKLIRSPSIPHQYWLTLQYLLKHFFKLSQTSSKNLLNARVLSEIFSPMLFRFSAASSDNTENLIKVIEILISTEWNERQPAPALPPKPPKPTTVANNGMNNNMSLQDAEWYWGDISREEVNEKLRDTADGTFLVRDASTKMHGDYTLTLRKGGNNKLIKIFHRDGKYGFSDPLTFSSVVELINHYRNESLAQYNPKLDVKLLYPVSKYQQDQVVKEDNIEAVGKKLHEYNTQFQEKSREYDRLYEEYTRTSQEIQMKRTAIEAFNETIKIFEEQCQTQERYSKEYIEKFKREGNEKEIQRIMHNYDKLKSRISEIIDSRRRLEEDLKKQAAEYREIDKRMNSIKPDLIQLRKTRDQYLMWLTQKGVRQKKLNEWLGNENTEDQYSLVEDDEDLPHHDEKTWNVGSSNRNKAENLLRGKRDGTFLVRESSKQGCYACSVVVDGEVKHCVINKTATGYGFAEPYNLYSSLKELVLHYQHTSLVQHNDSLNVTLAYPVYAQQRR
Compound,AUC0-inf [4] [ng·h/mL],AUC0-t [4] [ng·h/mL],Cmax [4] [ng/mL],F % (n = 3) [4] [%],Kel [4] [h⁻¹],t1/2 [4] [h],tmax [4] [h],"HPLC (area %), One week [6] [area %]",XRPD form after storage (form change) [6],difference of HPLC purity after storage [6],"HPLC Area (%), RRT 1.00 ([6]; 25° C./60% RH for 1 week) [%]","HPLC Area (%), RRT 1.08 ([6]; 25° C./60% RH for 1 week) [%]","HPLC Area (%), RRT 1.13 ([6]; 25° C./60% RH for 1 week) [%]","HPLC Area (%), RRT 1.00 ([6]; 40° C./75% RH for 1 week) [%]","HPLC Area (%), RRT 1.08 ([6]; 40° C./75% RH for 1 week) [%]","HPLC Area (%), RRT 1.13 ([6]; 40° C./75% RH for 1 week) [%]","HPLC (area %), Initial ([6]; Initial) [area %]","HPLC Area (%), RRT 1.00 ([6]; Initial) [%]","HPLC Area (%), RRT 1.13 ([6]; Initial) [%]",also measured
"Cc1nc([C@@H](C)c2cc(Cl)c(F)c(C(=O)NCCN3CCN(C)CC3)c2OC(C)C)n2ccnc(N)c12 [Compound A, (S)-3-(1-(8-amino-1-methylimidazo[1,5-a]pyrazin-3-yl)ethyl)-5-chloro-6-fluoro-2-isopropoxy-N-(2-(4-methylpiperazin-1-yl)ethyl)benzamide]",,,,,,,,,,,,,,,,,,,,inhibition of PI3Kδ [1]: potent and selective inhibitor; inhibition of cellular growth [2]: inhibits cellular growth; antitumor effects [3]: dose-dependent antitumor effects
Cc1nc([C@@H](C)c2cc(Cl)c(F)c(C(=O)NCCN3CCN(C)CC3)c2OC(C)C)n2ccnc(N)c12.Cc1nc([C@@H](C)c2cc(Cl)c(F)c(C(=O)NCCN3CCN(C)CC3)c2OC(C)C)n2ccnc(N)c12.O=C(O)C(O)C(O)C(=O)O.O=C(O)C(O)C(O)C(=O)O.O=C(O)C(O)C(O)C(=O)O [D-Tartarate (acid/base = 1.5:1)],147.7,54.9,14.8,3.4,0.06,12,2.7,,,,,,,,,,,,,
Cc1nc([C@@H](C)c2cc(Cl)c(F)c(C(=O)NCCN3CCN(C)CC3)c2OC(C)C)n2ccnc(N)c12.O=C(O)/C=C/C(=O)O [Fumarate Type A],,,,,,,,,,,,,,,,,,,,water uptake in DVS ([5]; started from 25° C./70% RH): ~21%
Cc1nc([C@@H](C)c2cc(Cl)c(F)c(C(=O)NCCN3CCN(C)CC3)c2OC(C)C)n2ccnc(N)c12.O=C(O)/C=C/C(=O)O [Fumarate Type D],356,210,48.3,13.6,0.0687,11,2.45,99.9,Type D,no obvious difference of HPLC purity,99.92,0.02,0.06,99.90,0.03,0.07,99.9,99.92,0.05,"XRPD form after storage (form change) ([6]; listed as fumarate Type D): no form change; HPLC Area (%), RRT 1.08 ([6]; Initial): 0.03%; long-term stability [7]: excellent long-term stability; humidity below which the form is speculated to be stable ([5]; from DVS, 25° C.): lower than 60 % RH; mass change in DVS ([5]; started at 25° C./60% RH, 60% to 0% RH, then 0% to 70% RH): ~1.6%"
Cc1nc([C@@H](C)c2cc(Cl)c(F)c(C(=O)NCCN3CCN(C)CC3)c2OC(C)C)n2ccnc(N)c12.O=C(O)/C=C/C(=O)O [Fumarate Type F],,,,,,,,99.9,Type F,no obvious difference of HPLC purity,99.88,0.02,0.05,99.91,0.03,0.06,99.9,99.95,0.05,"XRPD form after storage (form change) ([6]; listed as fumarate Type F): no form change; HPLC Area (%), RRT 1.06 ([6]; 25° C./60% RH for 1 week): 0.05%; water uptake in DVS ([5]; started at 25° C./80% RH): ~17%"
